In patent US8614195B2, “Glycoside derivatives and uses thereof” (Novartis AG, priority 2011, dated 2013):

Columns and labels:
human SGLT1 = human SGLT1 (Homo sapiens (Human), UniProt P13866); test: SGLT1 assay: analogous 14C-AMG uptake test with hSGLT1 expressed in CHO-K1 or HEK293 cells; format: cell-based; settings: n = 1-4
Method: (§1) The SGLT-2 assay is carried out as follows: CHO-hSGLT2 cells are cultivated in Ham's F12 Medium (BioWhittaker) with 10% foetal calf serum and 250 μg/mL zeocin (Invitrogen), and HEK293-hSGLT2 cells are cultivated in DMEM medium with 10% foetal calf serum and 250 μg/mL zeocin (Invitrogen). The cells are detached from the culture flasks by washing twice with PBS and subsequently treating with trypsin/EDTA. After the addition of cell culture medium the cells are centrifuged, resuspended in culture medium and counted in a Casy cell counter. Then 40,000 cells per well are seeded into a white, 96-well plate coated with poly-D-lysine and incubated overnight at 37° C., 5% CO2. The cells are washed twice with 250 μl of assay buffer (Hanks Balanced Salt Solution, 137 mM NaCl, 5.4 mM KCl, 2.8 mM CaCl2, 1.2 mM MgSO4 and 10 mM HEPES (pH 7.4), 50 μg/mL of gentamycin). 250 μl of assay buffer and 5 μl of test compound are then added to each well and the plate is incubated for a further 15 minutes in the incubator. 5 μl of 10% DMSO are used as the negative control. The reaction is started by adding 5 μl of 14 C— AMG (0.05 μCi) to each well. After 2 hours' incubation at 37° C., 5% CO2, the cells are washed again with 250 μl of PBS […] and then lysed by the addition of 25 μl of 0.1 N NaOH (5 min. at 37° C.). 200 μl of MicroScint20 (Packard) are added to each well and incubation is continued for a further 20 min at 37° C. After this incubation the radioactivity of the ^14C-AMG absorbed is measured in a Topcount (Packard) using a ^14C scintillation program.
To determine the selectivity with respect to human SGLT1 an analogous test is set up in which the cDNA for hSGLTI (Genbank Ace. No. NM000343) instead of hSGLT2 cDNA is expressed in CHO-K1 or HEK293 cells.
The title compounds of the Examples were evaluated in the above described assays and the results of which are collated in Table 1.

[1] = molecular target: human sodium glucose co-transporter 2 (SGLT2) (Homo sapiens (Human), UniProt P31639); test: SGLT-2 assay: 14C-AMG uptake in CHO-hSGLT2 or HEK-hSGLT2 cells; format: cell-based; settings: n = 1-4
human sodium glucose co-transporter 2 (SGLT2), sequence (P31639 whole entry): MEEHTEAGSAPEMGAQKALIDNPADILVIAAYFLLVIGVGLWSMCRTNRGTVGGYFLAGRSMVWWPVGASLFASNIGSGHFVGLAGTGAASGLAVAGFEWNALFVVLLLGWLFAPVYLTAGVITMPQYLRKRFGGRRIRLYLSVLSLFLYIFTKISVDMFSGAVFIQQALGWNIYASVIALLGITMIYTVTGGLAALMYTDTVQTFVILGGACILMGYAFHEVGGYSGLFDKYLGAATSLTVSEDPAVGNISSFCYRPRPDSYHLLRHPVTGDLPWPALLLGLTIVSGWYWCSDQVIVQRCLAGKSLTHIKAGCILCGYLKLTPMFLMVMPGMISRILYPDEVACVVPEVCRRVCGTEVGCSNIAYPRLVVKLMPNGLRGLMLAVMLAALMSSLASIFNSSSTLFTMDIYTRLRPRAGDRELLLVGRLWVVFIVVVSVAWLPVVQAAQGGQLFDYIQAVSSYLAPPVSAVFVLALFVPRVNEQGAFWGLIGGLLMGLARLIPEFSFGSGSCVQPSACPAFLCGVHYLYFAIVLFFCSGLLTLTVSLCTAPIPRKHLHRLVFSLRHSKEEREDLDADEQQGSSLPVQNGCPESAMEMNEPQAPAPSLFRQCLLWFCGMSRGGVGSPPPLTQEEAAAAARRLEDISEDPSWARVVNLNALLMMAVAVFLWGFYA
Method: These cell lines transport ^14C-labelled alpha-methyl-glucopyranoside (^14C-AMG, Amersham) into the interior of the cell in sodium-dependent manner.
as §1

[2] = title compounds of the Examples (prodrugs)

human SGLT1, sequence (P13866 whole entry): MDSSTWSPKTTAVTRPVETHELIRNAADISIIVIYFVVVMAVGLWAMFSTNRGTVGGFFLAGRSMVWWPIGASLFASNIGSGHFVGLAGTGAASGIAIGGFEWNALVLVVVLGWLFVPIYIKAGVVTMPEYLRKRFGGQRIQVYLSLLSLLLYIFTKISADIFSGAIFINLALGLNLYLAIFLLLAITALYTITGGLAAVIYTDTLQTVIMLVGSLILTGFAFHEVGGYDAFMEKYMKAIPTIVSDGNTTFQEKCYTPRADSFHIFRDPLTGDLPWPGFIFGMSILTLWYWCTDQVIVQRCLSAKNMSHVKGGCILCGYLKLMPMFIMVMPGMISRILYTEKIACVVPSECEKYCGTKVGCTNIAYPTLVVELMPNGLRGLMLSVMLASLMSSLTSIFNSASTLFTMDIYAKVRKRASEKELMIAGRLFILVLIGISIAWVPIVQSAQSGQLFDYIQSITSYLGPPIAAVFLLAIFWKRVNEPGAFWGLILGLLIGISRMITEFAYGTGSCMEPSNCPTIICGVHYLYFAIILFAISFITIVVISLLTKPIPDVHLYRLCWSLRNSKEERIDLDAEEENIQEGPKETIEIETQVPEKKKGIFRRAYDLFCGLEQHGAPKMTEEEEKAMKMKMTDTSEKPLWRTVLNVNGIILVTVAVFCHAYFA

Structure (SMILES)	IC50 (human SGLT1)	IC50 (human SGLT1; [2])	IC50 [1, 2]	IC50 ([1]; parent compound of the prodrugs)
CCc1ccc([C@@H]2O[C@H](CO)[C@@H](O)[C@H](O)[C@H]2O)cc1Cc1ccc2c(c1)OCCO2 [(2S,3R,4R,5S,6R)-2-[3-(2,3-Dihydro-benzo[1,4]dioxin-6-ylmethyl)-4-ethyl-phenyl]-6-hydroxymethyl-tetrahydro-pyran-3,4,5-triol]	22 nM	–	–	–
COC(=O)OC[C@H]1O[C@@H](c2ccc(C3CC3)c(Cc3ccc4c(c3)OCCO4)c2)[C@H](O)[C@@H](O)[C@@H]1O [Example 2, carbonic acid (2R,3S,4R,5R,6S)-6-[4-cyclopropyl-3-(2,3-dihydro-benzo[1,4]dioxin-6-ylmethyl)-phenyl]-3,4,5-trihydroxy-tetrahydro-pyran-2-ylmethyl ester methyl ester]	–	35 nM	17.5 nM	–
CCc1ccc([C@@H]2O[C@H](COC(=O)O[C@@H](C)c3ccccc3)[C@@H](O)[C@H](O)[C@H]2O)cc1Cc1ccc2c(c1)OCCO2 [Example 2g, Carbonic acid (2R,3S,4R,5R,6S)-6-[3-(2,3-dihydro-benzo[1,4]dioxin-6-ylmethyl)-4-ethyl-phenyl]-3,4,5-trihydroxy-tetrahydro-pyran-2-ylmethyl ester (S)-1-phenyl-ethyl ester]	–	1000 nM	567 nM	–
CCc1ccc([C@@H]2O[C@H](COC(=O)[C@H](N)C(C)C)[C@@H](O)[C@H](O)[C@H]2O)cc1Cc1ccc2c(c1)OCCO2 [Example 1, (R)-2-Amino-3-methyl-butyric acid (2R,3S,4R,5R,6S)-6-[3-(2,3-dihydro-benzo[1,4]dioxin-6-ylmethyl)-4-ethyl-phenyl]-3,4,5-trihydroxy-tetrahydro-pyran-2-ylmethyl ester]	–	409 nM	22.5 nM	–
CCOP(=O)(OCC)OC[C@H]1O[C@@H](c2ccc(CC)c(Cc3ccc4c(c3)OCCO4)c2)[C@H](O)[C@@H](O)[C@@H]1O [Example 3, phosphoric acid (2R,3S,4R,5R,6S)-6-[3-(2,3-dihydro-benzo[1,4]dioxin-6-ylmethyl)-4-ethyl-phenyl]-3,4,5-trihydroxy-tetrahydro-pyran-2-ylmethyl ester diethyl ester]	–	814 nM	> 1000 nM	–
CCOC(=O)OC[C@H]1O[C@@H](c2ccc(CC)c(Cc3ccc4c(c3)OCCO4)c2)[C@H](O)[C@@H](O)[C@@H]1O [Example 2c, Carbonic acid (2R,3S,4R,5R,6S)-6-[3-(2,3-dihydro-benzo[1,4]dioxin-6-ylmethyl)-4-ethyl-phenyl]-3,4,5-trihydroxy-tetrahydro-pyran-2-ylmethyl ester ethyl ester]	–	197 nM	27 nM	–
OC[C@H]1O[C@@H](c2ccc(C3CC3)c(Cc3ccc4c(c3)OCCO4)c2)[C@H](O)[C@@H](O)[C@@H]1O [(2S,3R,4R,5S,6R)-2-[4-Cyclopropyl-3-(2,3-dihydro-benzo[1,4]dioxin-6-ylmethyl)-phenyl]-6-hydroxymethyl-tetrahydro-pyran-3,4,5-triol]	9 nM	–	–	2.2 nM
CCc1ccc([C@@H]2O[C@H](COC(=O)OCC3CC4CCC3C4)[C@@H](O)[C@H](O)[C@H]2O)cc1Cc1ccc2c(c1)OCCO2 (stereo partly drawn) [Example 2f, Carbonic acid bicyclo[2.2.1]hept-2-ylmethyl ester (2R,3S,4R,5R,6S)-6-[3-(2,3-dihydro-benzo[1,4]dioxin-6-ylmethyl)-4-ethyl-phenyl]-3,4,5-trihydroxy-tetrahydro-pyran-2-ylmethyl ester]	–	3440 nM	143 nM	–
CCOP(=O)(OCC)OC[C@H]1O[C@@H](c2ccc(C3CC3)c(Cc3ccc4c(c3)OCCO4)c2)[C@H](O)[C@@H](O)[C@@H]1O [Example 3a, Phosphoric acid (2R,3S,4R,5R,6S)-6-[4-cyclopropyl-3-(2,3-dihydro-benzo[1,4]dioxin-6-ylmethyl)-phenyl]-3,4,5-trihydroxy-tetrahydro-pyran-2-yl methyl ester diethyl ester]	–	5650 nM	> 1000 nM	–
CC(C)COC(=O)OC[C@H]1O[C@@H](c2ccc(C3CC3)c(Cc3ccc4c(c3)OCCO4)c2)[C@H](O)[C@@H](O)[C@@H]1O [Example 2b, Carbonic acid (2R,3S,4R,5R,6S)-6-[4-cyclopropyl-3-(2,3-dihydro-benzo[1,4]dioxin-6-ylmethyl)-phenyl]-3,4,5-trihydroxy-tetrahydro-pyran-2-ylmethyl ester isobutyl ester]	–	338 nM	186 nM	–
CCOC(=O)OC[C@H]1O[C@@H](c2ccc(C3CC3)c(Cc3ccc4c(c3)OCCO4)c2)[C@H](O)[C@@H](O)[C@@H]1O [Example 2a, Carbonic acid (2R,3S,4R,5R,6S)-6-[4-cyclopropyl-3-(2,3-dihydro-benzo[1,4]dioxin-6-ylmethyl)-phenyl]-3,4,5-trihydroxy-tetrahydro-pyran-2-ylmethyl ester ethyl ester]	–	308 nM	97 nM	–
